Publication PMC10803328 (Scientific Reports, 2024)
“And” between values parts separate entries of the source, which are not always exact repeats. Equal values may be shown once.

Tests used:
[1] = PET imaging and arterial plasma radiometabolite analysis in non-transduced healthy monkey; format: in vivo, rhesus monkey
Method: (§1) All PET imaging studies were performed with a Mediso LFER 150 preclinical scanner (nanoScan PET/CT). Brain and brain region radioactivity uptake was expressed by standardized uptake value (SUV) which normalizes for injected radioactivity and monkey body weight, as follows: SUV = [(% injected dose per g tissue) × body weight in g]/100.
Two male rhesus monkeys (macaca mulatta; 10.0 and 8.6 kg) underwent PET scanning. Each monkey was initially immobilized with ketamine (10 mg/kg, i.m.) and then maintained under anesthesia with 1.5% isoflurane. For each monkey, a baseline scan was performed for 120 min. […] Electrocardiogram, body temperature, heart, and respiration rates were monitored throughout the scans.
Total radioactivity concentrations in sampled arterial whole blood and plasma were measured in a γ-counter throughout the 90-min scanning period.
PET images were reconstructed using Fourier rebinding plus two-dimensional filtered back-projection with attenuation and scatter correction. Images were co-registered to a standardized monkey MRI template using the FMRIB Software Library (FSL; Oxford, UK). Thirty-four predefined brain regions of interest from the template were applied to the co-registered PET image to obtain regional, decay-corrected, time-activity curves.

PSAM^4-GlyR = PSAM^4-GlyR (Homo sapiens, UniProt P23415+P36544, L131G/Q139L/Y217F); set-up: expressed in transfected cells; method as in PMID 30872534, PMID 24556591, PMID 36279419; settings: read-out: PSAM^4-GlyR (Ki); in vitro binding assay, literature; cited from earlier work
Chain of PSAM^4-GlyR (P36544+P23415 fused P36544:L131G/P36544:Q139L/P36544:Y217F): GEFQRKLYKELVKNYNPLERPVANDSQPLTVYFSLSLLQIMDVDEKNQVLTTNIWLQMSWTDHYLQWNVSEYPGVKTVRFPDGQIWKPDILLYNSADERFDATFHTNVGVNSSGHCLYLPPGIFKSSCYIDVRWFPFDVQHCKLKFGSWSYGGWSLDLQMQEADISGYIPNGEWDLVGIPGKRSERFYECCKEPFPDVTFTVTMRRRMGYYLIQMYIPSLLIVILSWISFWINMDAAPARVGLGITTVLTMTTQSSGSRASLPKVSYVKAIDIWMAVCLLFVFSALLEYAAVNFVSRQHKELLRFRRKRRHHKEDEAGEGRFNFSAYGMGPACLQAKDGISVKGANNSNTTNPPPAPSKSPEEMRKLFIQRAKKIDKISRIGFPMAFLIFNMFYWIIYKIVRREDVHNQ

[2] = PET imaging of brain in wild-type rats; format: in vivo, rat; settings: i.v.
Method: as §1
Animals were maintained under anesthesia with 1.5% isoflurane throughout the scan. Radioligand was injected intravenously via a penile vein catheter followed by PET imaging for 90 min. Brain uptake was expressed as standardized uptake value (SUV, concentration normalized by injected activity and body weight) and compared between the wild-type and self-blocked conditions.

[3] = Plasma free fraction by ultrafiltration, rat plasma; format: in vitro ADME; settings: fresh rat plasma, read-out: rat plasma free fraction (fP)
Method: (§2) In vitro stability was calculated by dividing the relative composition of the blood or brain homogenate determined with radio-HPLC by the initial radiochemical purity of the radioligand. […] The mixture was incubated at room temperature for 10 min and then processed exactly as described previously. The ultrafiltration components that contained high radioactivity were allowed time for radioactivity decay to within the optimal range of the γ-counter before they were counted again.

[4] = Plasma free fraction by ultrafiltration, pooled human standard plasma; format: in vitro ADME
Method: as §2

[5] = non-transduced healthy monkey, i.v., PET

SMILES: [11CH3]n1c(=O)cnc2cc3c(cc21)C1CNCC3C1 (stereo not drawn) [[^11C]uPSEM792]
- time at which radiometabolites represented half of the radioactivity in plasma ([1]; male, rhesus monkey, in vivo): 78 min
- unchanged radioligand peak in plasma radiochromatogram ([1]; male, rhesus monkey, in vivo, 120 min): 29%
- peak of whole brain time-activity curve [1, 5]: 0.8 SUV and ~ 0.8 SUV
- plateau of whole brain time-activity curve [1, 5]: about 0.65 SUV
- Ki (PSAM^4-GlyR): 700 pM
- peak whole brain radioactivity uptake [2]: ~ 0.6 SUV and < 0.6 SUV
- time of peak whole brain radioactivity [2]: 5 min
- fraction unbound at 10 min, 2.6 MBq/mL [3]: 0.898
- fraction unbound at 10 min, 2.6 MBq/mL [4]: 0.876
